Key:
SHHF rats [1] = experiment: Resting heart rate in SHHF rats after Vitamin D treatment; assay type: in vivo, rat; conditions: 13 weeks; for Heart rate vs control SHHF rats: SQ
From the text: (§1) The effects of Vitamin D compounds including Vitamin D5 and D3 on the contraction of cardiomyocytes in vivo can be studied using normal and heart failure prone rats. To test the effect of Vitamin D compounds on heart failure rats, the present inventors selected the strain of rats called Spontaneously Hypertensive Heart Failure (SHHF) rats obtained from Charles River Laboratories, Wilmington Mass., USA. The SHHF rat was developed by backcrossing the SHROB rat to the SHR/N rat. They are characterized as naturally developing congestive heart failure, hypertension, nephropathy, obesity, insulin resistance, hyperinsulinemia and Type 2 diabetes spontaneously. […] Obesity is expressed as an autosomal recessive (cp/cp) trait, and hypertension is multifactorial (Yen at al., 1974). The CHF trait has been maintained through at least 15 generations. The mode of inheritance of the CHF is probably multifactorial, much like hypertension. These rats develop many of the clinical signs of CHF: generalized and subcutaneous edema, hydrothorax, ascites, dyspnea, cyanosis, enlarged hearts, left atrial thrombosis, and hyperemia of the lungs, liver, and kidneys. These rats are hypertensive, but blood pressure falls to normal levels with the onset of severe CHF. […] These morphologic changes probably reflect early compensatory LV hypertrophy at 6-10 months of age. This is followed by LV failure with elevated right heart pressures and RVFW hypertrophy, finally leading to biventricular CHF. This progression is similar to that of hypertensive heart disease in humans. Other similarities between the SHHF model and human hypertensive-diabetic cardiomyopathy (Factor et al., 1980) and another rat model of hypertension and diabetes (Factor et al., 1983) include increased heart weight and prominent interstitial fibrosis. Pathologic alterations in SHHF Rat hearts corresponding to human dilated cardiomyopathy include four-chamber dilation, intracardiac thrombi, myocyte hypertrophy, and interstitial fibrosis (Unveferth et al., 1986).
Five treatment groups were established using SHHF rats. […]

[2] = system: atrial natriuretic peptide (ANP) in HL-1 cardiomyocytes; experiment: Repression of atrial natriuretic peptide (ANP) in HL-1 cardiomyocytes (Western blot); assay type: cell-based; conditions: HL-1 cardiomyocytes treated 48 hours, Western analysis, vs vehicle
Protocol: Induction of VDR and repression of ANP by calcitriol (1,25-(OH)2vitamin-D3) and 1 alpha analogs (1α-Hydroxyitamin-D3 and 1α-hydroxysitocalciferol) is shown in the Western blot of FIG. 7. HL-1 cardiomyocyte cells were grown until confluent then split, and an equal amount (8×10^6 cells) of cells were plated for 24 hours and then treated for 48 hours either with vehicle (control) or with the indicated amount of Vitamin D compound. Cells were then harvested and subjected to Western analysis.

[3] = system: Vitamin D receptor (VDR) in HL-1 cardiomyocytes; experiment: Induction of VDR in HL-1 cardiomyocytes (Western blot); assay type: cell-based; conditions: HL-1 cardiomyocytes treated 48 hours, Western analysis, vs vehicle
Protocol: HL-1 cardiomyocyte cells were grown until confluent then split, and an equal amount (8×10^6 cells) of cells were plated for 24 hours and then treated for 48 hours either with vehicle (control) or with the indicated amount of Vitamin D compound. Cells were then harvested and subjected to Western analysis.

SHHF rats [4] = experiment: Cardiac hemodynamic parameters by echocardiography in SHHF rats; assay type: in vivo, rat; conditions: for E/A transmitral flow ratio, change vs control / Cardiac index vs control / Stroke volume vs control: 5 days per week for 13 weeks
Protocol: (§2) Five treatment groups were established using SHHF rats. In each cohort (5-6 rats), the diets were substantially identical, rats were each fed a high salt diet (8% NaCl) (Harlan Teklad diet TD92012, Madison Wis. USA) and were accommodated equally. All treatment groups received a single once daily administration subcutaneously (SQ) of a Vitamin D compound at varying concentrations five times per week. The Vitamin D compound was dissolved in 1,2 propandiol containing 0.7% ethanol. Control SHHF rats were dosed with vehicle control alone. The animals were dosed for a period of 13 weeks before they were examined by echocardiography explained in more detail below. The first group comprised a control group in which they received a vehicle alone treatment lacking any Vitamin D. The second group consisted of SHHF rats injected with 18 ng 1,25 dihydroxy Vitamin D3 per dose, one dose per day treated animals. The third group consisted of SHHF rats injected with 33 ng of 1α-hydroxysitocalciferol per dose, one dose per day treated animals. The fourth group consisted of SHHF rats injected with 100 ng of 1α-hydroxysitocalciferol per dose, one dose per day treated animals. The fifth group consisted of SHHF rats injected with 300 ng of 1α-hydroxysitocalciferol per dose, one dose per day treated animals.
After 13 weeks of treatment with the Vitamin D compounds or vehicle control alone, the SHHF rat's cardiac hemodynamic condition was measured, recorded and analyzed for the presence or absence of cardiac tranquilization and reversal of heart failure symptoms.
Non-invasive recording electrocardiograms and echocardiography in conscious rats: Two-dimensional and M-mode echocardiographic images will be recorded using a GE S10 MHz phased-array transducer, connected to a General Electric, Vivid 7 Ultrasound System. The System used for ECG was the AnonyMOUSE ECG Screening System (Mouse Specifics, Boston, Mass. USA). The rats are placed on the instrument's platform and acclimated for 10 min prior to ECG recordings. Animals are anesthetized using an isoflurane anesthetic machine, first by introducing 4% isoflurane and 1 liter of oxygen to an induction chamber. When rats are in lateral recumbency and the breathing is slowed, they are moved to the table where they are placed on a warming pad to maintain body temperature. Their nose is placed in a cone which supplies 1-2% isoflurane and 1 liter of oxygen to maintain a surgical plane of anesthesia. The hair is removed from the upper abdominal and thoracic area with depilatory cream. ECG is monitored via non-invasive resting ECG electrodes (trimmed to fit) placed on the paw pads. The echocardiogram takes approximately 10 minutes.
Transthoracic echocardiography is performed in the supine or left lateral position. Data are analyzed by proprietal software and all rats ECG intervals analyzed by Student's two-tail t-test. […]

[5] = Total body weight of SHHF rats; assay type: in vivo, rat; conditions: 100 ng/100 g body weight, SQ, 13 weeks
Protocol: as §2
Blood pressure measurement by tail-cuff artery occlusion.

SHHF rats [6] = experiment: Systolic blood pressure by tail-cuff in SHHF rats; assay type: in vivo, rat; conditions: 100 ng/100 g bw, SQ, 13 weeks
From the text: as §1, with “This is followed by LV failure with elevated right heart pressures and RVFW hypertrophy, finally leading to biventricular CHF. This progression is similar to that of hypertensive heart disease in humans. Other similarities between the SHHF model and human hypertensive-diabetic cardiomyopathy (Factor et al., 1980) and another rat model of hypertension and diabetes (Factor et al., 1983) include increased heart weight and prominent interstitial fibrosis. Pathologic alterations in SHHF Rat hearts corresponding to human dilated cardiomyopathy include four-chamber dilation, intracardiac thrombi, myocyte hypertrophy, and interstitial fibrosis (Unveferth et al., 1986).” left out

adult cardiomyocyte = experiment: PKC activation and adult cardiomyocyte contractile function; assay type: cell-based
Protocol: In addition to continued acceleration of relengthening in cardiomyocytes, upon administration of Vitamin D5 the PKC targets phospholamban and cardiac troponin I (cTnI) are specifically phosphorylated by PKC within approximately 60 minutes. Without being bound to theory, it is believed that phosphorylation of phospholamban can increase Ca^2+ sequestration into the sarcoplasmic reticulum while cardiac troponin C I phosphorylation decreases myofilament Ca^2+ sensitivity, two particularly significant events in increasing the relaxation of contractile function in the adult cardiomyocyte.
The pharmaceutical compositions and methods described herein illustrate a mechanism to accelerate relaxation of cardiomyocyte contractile function via direct and rapid cellular action upon administration of 1α25-dihydroxyvitamin D5. These acute effects can be blocked by PKC inhibitors, illustratively bis-I. The phosphorylation of these key cardiac markers phospholamban and troponin C I develop within the same time period as the initial rapid decrease in peak shortening, and acceleration of contraction and relaxation rates.

[7] = 300 ng/day, listed as Vitamin D5

Structure (SMILES)	Heart rate vs control SHHF rats or Wistar rats (SHHF rats [1]; 18 ng 1,25(OH)2D3, SQ)	Repression of ANP expression [2]	Induction of VDR [3]	Heart rate vs control SHHF rats (SHHF rats [1]; 33 ng/100 g body weight)	Heart rate vs control SHHF rats (SHHF rats [1]; 300 ng/day)	E/A transmitral flow ratio, change vs control (SHHF rats [4]; 100 ng/day)	E/A transmitral flow ratio, change vs control (SHHF rats [4]; 100 ng/day, listed as Vitamin D5)	E/A ratio (SHHF rats [4]; 300 ng/day, 13 week treatment)	Cardiac index vs control (SHHF rats [4]; 300 ng/day)	E/A transmitral flow ratio, change vs control (SHHF rats [4]; 300 ng/day)	Stroke volume vs control (SHHF rats [4]; 300 ng/day)	Cardiac index vs control (SHHF rats [4]; [7])	Stroke volume vs control (SHHF rats [4]; [7])	Stroke volume, untreated SHHF rats in comparison to treated (SHHF rats [4]; all doses of Vitamin D5 (33, 100, 300 ng/day), 13 weeks)	Total body weight at 30 weeks age vs control SHHF rats [5]	Systolic blood pressure vs control SHHF rats (SHHF rats [6])	Time to phosphorylation of phospholamban and cardiac troponin I (cTnI) by PKC (adult cardiomyocyte; cardiomyocytes, upon administration of Vitamin D5)	Relaxation in adult cardiomyocyte contractile function (adult cardiomyocyte; via PKC activation)
C=C1/C(=C\C=C2/CCC[C@]3(C)[C@@H]([C@H](C)CCCC(C)(C)O)CC[C@@H]23)C[C@@H](O)C[C@@H]1O [1,25(OH)2D3, 1,25-dihydroxyvitamin D3, reference compound]	higher heart rates albeit not statistically significant	repression	–	–	–	–	–	–	–	–	–	–	–	–	–	–	–	–
C=C1/C(=C\C=C2/CCC[C@]3(C)[C@@H]([C@H](C)CCCC(C)C)CC[C@@H]23)C[C@@H](O)C[C@@H]1O [1α-Hydroxyitamin-D3, reference compound]	–	repression	considerable induction	–	–	–	–	–	–	–	–	–	–	–	–	–	–	–
C=C1/C(=C\C=C2/CCC[C@]3(C)[C@@H]([C@H](C)CC[C@@H](CC)C(C)C)CC[C@@H]23)C[C@@H](O)C[C@@H]1O [1α-hydroxysitocalciferol, 1-α-hydroxy-2,4-ethyl-9,10-seco-5,7,10(19)-cholestatrien-3 β-ol]	–	remarkable repression	considerable induction	decrease	increase in heart rate	statistically significant reduction	significant reduction	about 0.99	statistically significant reduction	statistically significant reduction	statistically significant reduction	significant reduction	Most pronounced	statistically significant	significant increased body weight	significant decreased BP	≤ 60 min	accelerated relaxation

Source: US10716798B2, “Compositions and methods for tranquilizing heart muscle” (THE REGENTS OF THE UNIVERSITY OF MICHIGAN, priority 2007, dated 2020)
